Reference: patent US20170260226A1, “3-NITROGEN OR SULPHUR SUBSTITUTED OESTRA-1,3,5(10),16-TETRAENE AKR1C3 INHIBITORS” (BAYER PHARMA AKTIENGESELLSCHAFT, priority 2014, published 2017)

What was measured:
AKR1C3 [1] = molecular target: T1, AKR1C3 (Homo sapiens, UniProt P42330); test: AKR1C3 enzyme inhibition assay (coumberone to coumberol fluorescence); format: biochemical; design: GST (cleaved yes); made in house; host or cells: E. coli; conditions: mean values; 10 μM NADPH, 0.3 μM coumberone, 3 h at room temperature
T1 sequence (P42330 1-323): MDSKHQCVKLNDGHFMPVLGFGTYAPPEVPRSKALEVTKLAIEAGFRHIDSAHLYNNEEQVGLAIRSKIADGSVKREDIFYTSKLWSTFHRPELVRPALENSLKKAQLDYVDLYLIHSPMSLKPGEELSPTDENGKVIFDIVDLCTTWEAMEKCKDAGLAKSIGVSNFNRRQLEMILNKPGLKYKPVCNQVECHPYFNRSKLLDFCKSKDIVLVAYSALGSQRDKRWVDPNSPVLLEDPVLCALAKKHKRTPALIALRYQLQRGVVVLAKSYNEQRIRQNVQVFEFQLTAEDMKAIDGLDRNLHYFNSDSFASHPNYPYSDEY
Description: The AKR1C3-inhibitory action of the substances of this invention was measured in the AKR1C3 assay described in the paragraphs which follow.
Essentially, the enzyme activity is measured by quantifying the coumberol formed from coumberone (Halim, M., Yee, D., J., and Sames, D., J. A., M. (2008). Chem Soc 130, 14123-14128 and Yee, D., J., Balsanek, V., Bauman, D., R., Penning, T., M., and Sames, D. (2006). Proc Natl Acad Sci USA, 103, 13304-13309). In this assay, the increase in the highly fluorescent coumberol can be determined by NADPH (nicotinamide adenine dinucleotide phosphate)-dependent reduction of the nonfluorescent coumberone by AKR1C3.
The enzyme used was recombinant human AKR1C3 (aldo-keto reductase family 1 member C3) (GenBank Accession No. NM_003739). This was expressed as the GST (glutathione S-transferase) fusion protein in E. coli and purified by means of glutathione-Sepharose affinity chromatography. The GST was removed by thrombin digestion with subsequent size exclusion chromatography (Dufort, I., Rheault, P., Huang, X., F., Soucy, P., and Luu-The, V. (1999). Endocrinology,140, 568-574).
For the assay, 40-50 nl of a 100-fold concentrated solution of the test substance in DMSO were pipetted into a black low-volume 384-well microtitre plate (Greiner Bio-One, Frickenhausen, Germany), 2-2.5 μl of a solution of AKR1C3 in assay buffer [50 mM potassium phosphate buffer pH 7, 1 mM DTT, 0.0022% (w/v) Pluronic F-127, 0.01% BSA (w/v) and protease inhibitor cocktail (complete, EDTA-free Protease Inhibitor Cocktail from Roche)] were added and the mixture was incubated for 20 min, in order to enable preliminary binding of the substances to the enzyme prior to the enzyme reaction. Then the enzyme reaction was started by adding 2-2.5 μl of a solution of NADPH and coumberone in assay buffer (final assay concentration was 10 μM NADPH and 0.3 μM coumberone) and the resulting mixture was incubated at room temperature for 3 h. Typical concentrations were depending on the linear range of the enzyme reaction during the reaction time about 1 nM. The reaction was stopped by adding 2 μl of a stop solution consisting of the AKR1C3 inhibitor EM-1404 to a final concentration of 1 μM. Subsequently, the fluorescence of coumberol was measured at 520 nm (excitation at 380 nm) with a suitable measuring instrument (Pherastar, BMG). […] The data were normalized (enzyme+coumberon substrate in assay buffer=0% inhibition; coumberone substrate only in assay buffer=100% inhibition). Substances were usually tested at 11 different concentrations on the same microtiter plate in a range between 96.8 pM to 20 μM (20 μM, 5.9 μM, 1.7 μM, 0.5 μM, 0.15 μM, 44 nM, 12.9 nM, 3.8 nM, 1.1 nM, 0.3 nM and 96.8 pM). The dilutions were carried out on a 100 fold concentrated solution by serial dilution in duplicates. From the obtained data IC50 values were calculated by a 4-parameter fit.

AKR1C3 [2] = molecular target: T1, AKR1C3; test: AKR1C3 inhibition in a cell-based system (HEK293 cells transfected with AKR1C3 expression plasmid, coumberon substrate); design: expressed in transfected cells; host or cells: HEK293 cells (ATCC); conditions: mean values; HEK293 cells transfected with AKR1C3, coumberon 6×10^−6M, 3 h; read-out: Cellular AKR1C3 inhibition IC50
Description: The inhibition of AKR1C3 by the substances described in this invention was measured in a cell-based assay using coumberon as the substrate for AKR1C3 (Halim, M., Yee, D., J., and Sames, D., J. (2008). Am Chem Soc, 130, 14123-14128 and Yee, D., J., Balsanek, V., Bauman, D., R., Penning, T., M., and Sames, D. (2006), Proc Natl Acad Sci USA 103, 13304-13309) (cf. Example 48).
The cell system used was HEK293 cells (ATCC, USA) (DMEM/F12, 10% FCS, 2 mM L-Glutamine, PSG). The cells were transfected with an AKR1C3 expression plasmid (pCMV6-AC-AKR1C3, GenBank Accession No. NM 003739.4), harvested after 24 hours and subsequently frozen. For assays, the frozen cells were thawed in assay medium (DMEM/F12 w/o phenolred, 0.005% Tween, 10% FCS, 2 mM L-Glutamine, PSG). Cells were seeded at 2500 cells/well into 384-well low volume or 1536-well plates (Greiner Bio-One, Frickenhausen, Germany) that contained 40-50 nl of a 100 fold concentrated compound solution in DMSO. After incubation at room temperature for 15 minutes, coumberon in PBS was added to a final concentration of 6×10^−6M. Following a 3 h incubation at room temperature, the reaction was stopped by lysing the cells with 0.4% Triton X-100. Coumberol fluorescence intensity was measured at 520 nm (excitation 380 nm) with a suitable measuring instrument (Pherastar, BMG). […] The data were normalized (transfected cells+coumberon=0% inhibition; no cells+coumberone=100% inhibition). Substances were usually tested at 11 different concentrations on the same microtiter plate in a range between 96.8 pM to 20 μM (20 μM, 5.9 μM, 1.7 μM, 0.5 μM, 0.15 μM, 44 nM, 12.9 nM, 3.8 nM, 1.1 nM, 0.3 nM and 96.8 pM). The dilutions were carried out on a 100 fold concentrated solution by serial dilution in duplicates. From the obtained data IC50 values were calculated by a 4-parameter fit.

Cc1cncc(C2=CC[C@H]3[C@@H]4CCc5cc(S(=O)(=O)CCCC(=O)O)ccc5[C@H]4CC[C@]23C)c1 [Example 17, 4-{[17-(5-methylpyridin-3-yl)estra-1,3,5(10),16-tetraen-3-yl]sulfonyl}butanoic acid]
IC50 (AKR1C3 [1]): 1.6 nM
IC50 (AKR1C3 [2]): 170 nM

Cc1cc(C2=CC[C@H]3[C@@H]4CCc5cc(S(=O)(=O)N(C)CCC(=O)O)ccc5[C@H]4CC[C@]23C)cnn1 [Example 07, N-methyl-N-{[17-(6-methylpyridazin-4-yl)estra-1(10),2,4,16-tetraen-3-yl]sulfonyl}-beta-alanine]
IC50 (AKR1C3 [1]): 0.5 nM
IC50 (AKR1C3 [2]): 800 nM

Cc1ccncc1C1=CC[C@H]2[C@@H]3CCc4cc(S(=O)(=O)CCCC(=O)O)ccc4[C@H]3CC[C@]12C [Example 18, 4-{[17-(4-methylpyridin-3-yl)estra-1,3,5(10),16-tetraen-3-yl]sulfonyl}butanoic acid]
IC50 (AKR1C3 [1]): 33.5 nM
IC50 (AKR1C3 [2]): 1790 nM

CN(CCCO)S(=O)(=O)c1ccc2c(c1)CC[C@@H]1[C@@H]2CC[C@]2(C)C(c3cncc(F)c3)=CC[C@@H]12 [Example 03, 17-(5-fluoropyridin-3-yl)-N-(3-hydroxypropyl)-N-methylestra-1(10),2,4,16-tetraene-3-sulfonamide]
IC50 (AKR1C3 [1]): 2.4 nM
IC50 (AKR1C3 [2]): 50 nM

C[C@]12CC[C@@H]3c4ccc(NC(=O)CCC(=O)O)cc4CC[C@H]3[C@@H]1CC=C2c1cncnc1 [Example 25, 4-oxo-4-{[17-(pyrimidin-5-yl)estra-1(10),2,4,16-tetraen-3-yl]amino}butanoic acid]
IC50 (AKR1C3 [1]): 313 nM
IC50 (AKR1C3 [2]): 8340 nM

C[C@]12CC[C@@H]3c4ccc(NC(=O)CCC(=O)O)cc4CC[C@H]3[C@@H]1CC=C2c1cncc(F)c1 [Example 23, 4-{[17-(5-fluoropyridin-3-yl)estra-1(10),2,4,16-tetraen-3-yl]amino}-4-oxobutanoic acid]
IC50 (AKR1C3 [1]): 3.8 nM
IC50 (AKR1C3 [2]): 780 nM

C[C@]12CC[C@@H]3c4ccc(NC(=O)CCC(N)=O)cc4CC[C@H]3[C@@H]1CC=C2c1cncc(F)c1 [Example 26, N-[17-(5-fluoropyridin-3-yl)estra-1(10),2,4,16-tetraen-3-yl]butanediamide]
IC50 (AKR1C3 [1]): 8.6 nM
IC50 (AKR1C3 [2]): 150 nM

C[C@]12CC[C@@H]3c4ccc(S(=O)(=O)CCCC(=O)O)cc4CC[C@H]3[C@@H]1CC=C2c1cncc(F)c1 [Example 10, 4-{[17-(5-fluoropyridin-3-yl)estra-1(10),2,4,16-tetraen-3-yl]sulfonyl}butanoic acid]
IC50 (AKR1C3 [1]): 2.9 nM
IC50 (AKR1C3 [2]): 490 nM

C[C@]12CC[C@@H]3c4ccc(S(=O)(=O)CCCC(N)=O)cc4CC[C@H]3[C@@H]1CC=C2c1cncc(F)c1 [Example 20, 4-{[17-(5-fluoropyridin-3-yl)estra-1(10),2,4,16-tetraen-3-yl]sulfonyl}butanamide]
IC50 (AKR1C3 [1]): 3.2 nM
IC50 (AKR1C3 [2]): 30 nM

C[C@]12CC[C@@H]3c4ccc(S(C)(=O)=O)cc4CC[C@H]3[C@@H]1CC=C2c1cncc(F)c1 [Example 08, 17-(5-fluoropyridin-3-yl)-3-(methylsulfonyl)estra-1(10),2,4,16-tetraene]
IC50 (AKR1C3 [1]): 4.1 nM
IC50 (AKR1C3 [2]): 80 nM

CN(c1ccc2c(c1)CC[C@@H]1[C@@H]2CC[C@]2(C)C(c3cncc(F)c3)=CC[C@@H]12)S(=O)(=O)CCC(=O)O [Example 38, 3-{[17-(5-fluoropyridin-3-yl)estra-1(10),2,4,16-tetraen-3-yl](methyl)sulfamoyl}propanoic acid]
IC50 (AKR1C3 [1]): 4.9 nM
IC50 (AKR1C3 [2]): 860 nM

C[C@]12CC[C@@H]3c4ccc(S(=O)(=O)CCCC(=O)O)cc4CC[C@H]3[C@@H]1CC=C2c1cccnc1 [Example 12, 4-{[17-(pyridin-3-yl)estra-1(10),2,4,16-tetraen-3-yl]sulfonyl}butanoic acid]
IC50 (AKR1C3 [1]): 12 nM
IC50 (AKR1C3 [2]): 700 nM

CC(=O)Nc1ccc2c(c1)CC[C@@H]1[C@@H]2CC[C@]2(C)C(c3cncc(F)c3)=CC[C@@H]12 [Example 40, N-[17-(5-fluoropyridin-3-yl)estra-1(10),2,4,16-tetraen-3-yl]acetamide]
IC50 (AKR1C3 [1]): 5.3 nM
IC50 (AKR1C3 [2]): 100 nM

C[C@]12CC[C@@H]3c4ccc(S(=O)(=O)CCCC(=O)O)cc4CC[C@H]3[C@@H]1CC=C2c1cncc(C(F)(F)F)c1 [Example 14, 4-({17-[5-(trifluoromethyl)pyridin-3-yl]estra-1(10),2,4,16-tetraen-3-yl}sulfonyl)butanoic acid]
IC50 (AKR1C3 [1]): 14.3 nM
IC50 (AKR1C3 [2]): 490 nM

C[C@]12CC[C@@H]3c4ccc(NC(=O)CCCO)cc4CC[C@H]3[C@@H]1CC=C2c1cncc(F)c1 [Example 27, N-[17-(5-fluoropyridin-3-yl)estra-1(10),2,4,16-tetraen-3-yl]-4-hydroxybutanamide]
IC50 (AKR1C3 [1]): 5 nM
IC50 (AKR1C3 [2]): 110 nM
